Consider two compounds from patent US7776885B2, “Benzimidazolone compounds having 5-HT4 receptor agonistic activity” (Pfizer, Inc., priority 2003, dated 2010).

Where a name gives a salt, the structure may show the parent alone.

Series [1] concerns the target T1, 5-HT4 receptors in the rat oesophagus (Rattus norvegicus, UniProt Q62758).
T1 construct: The remaining inner tube of smooth muscle was known as the TMM; from tissue; host or cells: rat oesophagus tunica muscularis mucosae (TMM), male SD rats (Charles River)
The series can be described thus: Functional assay in rat oesophagus TMM preparation (relaxation of carbachol-contracted tissue). The settings on record: 1 μM antagonist added to bath. From the text:
More specifically, partial agonist activity can be measured according to the following procedures.
Male SD rats (Charles River) weighing 250-350 g were stunned and then killed by cervical dislocation. The oesophagus was dissected from immediately proximal to the stomach (including piece of stomach to mark distal end) up to the level of the trachea and then placed in fresh Krebs' solution.
The outer skeletal muscle layer was removed in one go by peeling it away from the underlying smooth muscle layer using forceps (stomach to tracheal direction). The remaining inner tube of smooth muscle was known as the TMM. This was trimmed to 2 cm from the original ‘stomach-end’ and the rest discarded.
The TMMs were mounted as whole ‘open’ tubes in longitudinal orientation in 5 ml organ baths filled with warm (32° C.) aerated Krebs. Tissues were placed under an initial tension of 750 mg and allowed to equilibrate for 60 minutes. The tissues were re-tensioned twice at 15 minute intervals during the equilibration period. The pump flow rate was set to 2 ml/min during this time.
Following equilibration, the pump was switched off. The tissues were exposed to 1 μM carbachol and contracted and reached a steady contractile plateau within 15 minutes. Tissues were then subject to 1 μM 5-HT (this was to prime the tissues). The tissues relaxed in response to 5-HT fairly rapidly—within 1 minute. […]

T1 sequence (Q62758 whole entry): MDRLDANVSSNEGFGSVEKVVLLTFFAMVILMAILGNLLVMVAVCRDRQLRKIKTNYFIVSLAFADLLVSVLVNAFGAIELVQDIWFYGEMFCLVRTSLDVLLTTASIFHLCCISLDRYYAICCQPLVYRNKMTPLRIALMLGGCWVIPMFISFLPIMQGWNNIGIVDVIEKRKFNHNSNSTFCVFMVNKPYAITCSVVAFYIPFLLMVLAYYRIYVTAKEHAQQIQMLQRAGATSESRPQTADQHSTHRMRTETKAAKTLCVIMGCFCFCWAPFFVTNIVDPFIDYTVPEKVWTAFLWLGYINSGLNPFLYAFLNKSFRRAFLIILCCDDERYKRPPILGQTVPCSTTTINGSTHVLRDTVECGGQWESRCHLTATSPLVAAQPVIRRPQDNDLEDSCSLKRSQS

One may read the melting point as the temperature of the solid-liquid transition. In turn, `CC(C)n1c(=O)n(C(=O)NCC2CCN(CC(=O)N3CCOCC3)CC2)c2ccccc21` (as salt: oxalate) came in with a melting point of 194.2 °C.

`O=C(OCCN1CCCCC1)c1c[nH]c2ccccc12` [SB 203,186, 1H-Indole-3-carboxylic acid, 2-(1-piperidinyl)ethyl ester]: the “reversal of 5-HT induced relaxation” value in series [1] is on record as “reversed 5-HT induced relaxation”.
